Laboratory results published in patent US8187822B2, “Methods to identify modulators” (Givaudan S.A., priority 2007, dated 2012).

How the values were obtained:
TAS2R16 = biological target: T1, TAS2R16 (Homo sapiens, UniProt Q9NYV7); test: Fluo-4 calcium assay, cells expressing TAS2R16 (control of antagonist specificity); assay type: cell-based; conditions: for P-β-G + test cpd A ΔF/F0: 25 μM test cpd A
T1 construct: The full length gene of human TAS2R44 was amplified by polymerase chain reaction (PCR) using gene-specific primers that span the entire coding region; RSS tag (first 45 amino acids of rat somatostatin receptor subtype 3) (N); expressed in transfected cells; host or cells: HEK293T cells expressing Gα16-gustducin44
T1 sequence (Q9NYV7 1-291): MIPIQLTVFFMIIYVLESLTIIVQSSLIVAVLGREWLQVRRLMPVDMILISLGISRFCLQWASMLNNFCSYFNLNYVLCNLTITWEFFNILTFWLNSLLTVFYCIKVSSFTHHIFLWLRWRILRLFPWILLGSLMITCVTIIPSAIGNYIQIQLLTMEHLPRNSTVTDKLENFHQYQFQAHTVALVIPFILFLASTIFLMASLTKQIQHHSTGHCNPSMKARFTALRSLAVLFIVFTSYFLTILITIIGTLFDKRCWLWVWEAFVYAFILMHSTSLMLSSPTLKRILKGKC
Experimental: (§1) At day 0, the HEK293T cell line expressing Gα16-gustducin44 and a TAS2R bitter taste receptor formed as described in examples 2b or 2c was seeded in antibiotic-free growth medium (standard DMEM with 10% (v/v) heat-inactivated fetal bovine serum, 2 mM L-glutamine[…]) into black wall/clear bottom 96-well plates, coated with poly(ethylenimine) (0.005% v/v) at a concentration of 15,000 cells per well and incubated for 48 hours in humidified atmosphere (37° C., 5% CO2).
(§2) At the time of the assay, the growth medium was discarded and the cells were in humidified atmosphere (37° C., 5% CO2) for 1 hour with 50 μl of loading buffer consisting of 1.5 μM Fluo-4 AM and […] probenicid (Sigma-Aldrich, St. Louis, Mo., US) in DMEM.
(§3) Afterwards, the 96-well plate was washed 5 times with 100 μl of assay buffer (130 mM NaCl, 5 mM KCl, 10 mM HEPES, 2 mM CaCl2, and 5 mM dextrose, pH 7.4) per well, using an automated plate washer (BioTek). The plate was further incubated for 30 minutes at room temperature in the dark to allow for complete de-esterification of the Fluo-4. Afterwards the plate was washed 5 times with 100 μl of assay buffer per well, and reconstituted with 100 μl of assay buffer per well.
(§4) For assay reading, the plate was placed in a Fluorometric Imaging Plate Reader (FLIPR) (FLIPR-TETRA™, Molecular Devices, Sunnyvale, Calif., US), and receptor activation was initiated by addition of 100 μl of a twofold concentrated agonist stock solution (to give the desired agonist end concentration when added to the 100 microliter assay buffer volume), which was prepared in assay buffer.
(§5) Fluorescence was continuously monitored for 20 seconds to give a signal baseline (averaged to give F0) prior to agonist addition and for 120 seconds after agonist addition. The change in signal divided by F0 gives ΔF/F0 indicated in the table, with ΔF being the maximum signal occurring within the 120 seconds minus the minimum signal (occurring within the 120 seconds after agonist addition.
(§6) All data was collected from at least two independent experiments each carried out in triplicate.
A concentration-response analysis was performed and EC50 values were calculated by nonlinear regression using the function f(x)=(a−d)/(1+(x/C)^nh)+d; with a=minimum signal, d=maximum signal, nh=hill coefficient, C=EC50, and x=agonist concentration. EC50 is the molar concentration of an agonist which produces 50% of the maximum possible effective response for that agonist.
(§7) The obtained calcium signals were corrected for the response of cells expressing only the G Protein α subunit (Gα16-gustducin44) and normalized to the fluorescence of cells prior to the stimulus using ΔF/F0 (Fmax−Fmin/F0).
All cells were HEK293T cells stably expressing Gα16-gustducin44, or expressing Gα16-gustducin44 and a TAS2R receptor (TAS2R44, TAS2R16).
The method was carried out as described in example 3 subject to the following modifications: The samples were tested with and without test compound A (test cpd A) and the signals were compared. The test compound was dissolved in dimethylsulfoxide (DMSO), and a negative control with equivalent DMSO concentration (0.02%) was performed accordingly to exclude a potential inhibitory effect of the solvent.
As a control of antagonist specificity, the response of an unrelated bitter taste receptor (TAS2R16) to its agonist phenyl-β-glucopyranosides is also detected (see results in table 8 herein below).

TAS2R1 = biological target: T2, TAS2R1 (Homo sapiens, UniProt Q9NYW7); test: Fluo-4 calcium assay, HEK293T cells stably expressing Gα16-gustducin44 and TAS2R1; assay type: cell-based
T2 construct: The full length gene of human TAS2R44 was amplified by polymerase chain reaction (PCR) using gene-specific primers that span the entire coding region; RSS tag (first 45 amino acids of rat somatostatin receptor subtype 3) (N); expressed in transfected cells
T2 sequence (Q9NYW7 1-299): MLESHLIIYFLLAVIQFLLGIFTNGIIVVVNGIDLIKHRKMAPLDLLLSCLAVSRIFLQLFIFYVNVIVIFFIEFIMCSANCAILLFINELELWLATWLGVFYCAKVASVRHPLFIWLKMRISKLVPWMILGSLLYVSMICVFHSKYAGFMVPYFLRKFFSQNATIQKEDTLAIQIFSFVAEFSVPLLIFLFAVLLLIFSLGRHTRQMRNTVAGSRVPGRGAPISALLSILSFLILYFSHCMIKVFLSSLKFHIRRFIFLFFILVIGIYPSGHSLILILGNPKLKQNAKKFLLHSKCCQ
Experimental: Cell lines that stably expresses a SABR (TAS2R44, TAS2R1, TAS2R10) was generated by transfecting pcDNA3.1Zeo-SABR into HEK293T/Gα16-gustducin 44 cells (both formed as described in example 1). The host cell line HEK-293T is commercially available from the American Tissue Culture Collection (ATCC), ATCC®# CRL-11268.
TAS2R1 expressing cells were identified by their response to 0.5 mM chloramphenicol (a known TAS2R1 agonist as described in WO 2006/053771) in addition to sucralose, which was determined via automated fluorimetric imaging on the FLIPR-Tetra instrumentation (Molecular Devices) using the methods described in Example 3. One clone was selected resulting in the HEK293T/Gα16-gustducin 44/TAS2R1 cell line.
as §1, §2, §3, §4, §5, §6, §7
The intracellular calcium response following addition of sucralose was determined in HEK293T cell line stably expressing Gα16-gustducin44 and TAS2R1 formed as described in example 2c.

In the case of `CC1=CCC(C/C=C/C(=O)O)C1(C)C` (centres unmarked) [test cpd A, (E)-4-(2,2,3-trimethylcyclopent-3-enyl)but-2-enoic acid], the “P-β-G + test cpd A ΔF/F0” value (TAS2R16; P-β-G 0.0391 mM) is reported as −0.013, the “P-β-G + test cpd A ΔF/F0” value (TAS2R16; P-β-G 0.0781 mM) is reported as 0.108 and the “P-β-G + test cpd A ΔF/F0” value (TAS2R16; P-β-G 0.1563 mM) is reported as 0.702. For the same compound, the “P-β-G + test cpd A ΔF/F0” value (TAS2R16; P-β-G 0.3125 mM) was 1.548, the “P-β-G + test cpd A ΔF/F0” value (TAS2R16; P-β-G 0.6250 mM) was 2.139 and the “P-β-G + test cpd A ΔF/F0” value (TAS2R16; P-β-G 1.2500 mM) was 2.367. For the same compound, the “P-β-G + test cpd A ΔF/F0” value (TAS2R16; P-β-G 2.5000 mM) was 2.480, the “P-β-G + test cpd A ΔF/F0” value (TAS2R16; P-β-G 5.0000 mM) was 2.646 and the “P-β-G + test cpd A ΔF/F0” value (TAS2R16; P-β-G 10.0000 mM) was 2.830. The “effect on the response of TAS2R16 to phenyl-β-glucopyranoside, in words” value (TAS2R16; test compound at 25 μM) was “does not block the response”.

With `OC[C@H]1O[C@H](O[C@]2(CCl)O[C@H](CCl)[C@@H](O)[C@@H]2O)[C@H](O)[C@@H](O)[C@H]1Cl` [Sucralose, sucralose] the “calcium signaling in TAS2R1 cells, in words” value (TAS2R1) was “significant concentration-dependent increase in calcium signaling”, the “TAS2R1 ΔF/F0” value (TAS2R1; sucralose 0.3906 mM) was 0.052 and the “TAS2R1 ΔF/F0” value (TAS2R1; sucralose 0.7813 mM) was 0.050. For the same compound, the “TAS2R1 ΔF/F0” value (TAS2R1; sucralose 1.5625 mM) was 0.047, the “TAS2R1 ΔF/F0” value (TAS2R1; sucralose 3.1250 mM) was 0.059 and the “TAS2R1 ΔF/F0” value (TAS2R1; sucralose 6.2500 mM) was 0.061. The “TAS2R1 ΔF/F0” value (TAS2R1; sucralose 12.5000 mM) was 0.072, the “TAS2R1 ΔF/F0” value (TAS2R1; sucralose 25.0000 mM) was 0.104 and the “TAS2R1 ΔF/F0” value (TAS2R1; sucralose 50.0000 mM) was 0.197. The “TAS2R1 ΔF/F0” value (TAS2R1; sucralose 100.0000 mM) was 0.518.
